Results reported in US5880158A, “Propionamide anticonvulsants” (Research Corporation Tech., Inc., priority 1997, dated 1999).

What was measured:
[1] = tested on: male albino Cartworth Farms No. 1 mice; test: maximal electroshock seizure (MES) test in mice; type: in vivo; details: intraperitoneal; for ED50: Mus musculus, ip, at time of peak effect, numbers in parentheses 95% confidence intervals
Description: (§1) Activity was established using the electrical (maximal electroshock or MES) test. In the MES test, a drop of electrolyte solution with anesthetic (0.5% butacaine hemisulfate in 0.9% sodium chloride) was used in the eyes of the animals prior to positioning the corneal electrodes and delivery of current. A 60 cycle alternating current was administered for 0.2 sec. at 50 mA. Protection endpoints were defined as the abolition of the hind limb tonic extensor component of the induced seizure. In mice, the effects of compounds on forced spontaneous motor activity were determined using the rotorod test. […] Normally under these conditions, a mouse can maintain its balance almost indefinitely. In the mouse identification screening study all compounds were given at three dose levels (30, 100, 300 mg/kg) and two time periods (0.5, 4h). Typically, in the MES seizures test one animal was used at 30 mg/kg and 300 mg/kg, and three animals at 100 mg/kg. In the rotorod toxicity test four animals were used at 30 mg/kg, and 300 mg/kg, and eight animals at 100 mg/kg. If activity was found at 30 mg/kg, then lower dosages were used to find the ED50 values.

[2] = tested on: male albino Cartworth Farms No. 1 mice; test: rotorod test, neurologic toxicity in mice; type: in vivo; details: intraperitoneal, at time of peak effect, numbers in parentheses 95% confidence intervals
Description: as §1

[3] = tested on: male albino Cartworth Farms No. 1 mice; test: protective index (TD50/ED50), rotorod versus MES in mice; details: for protective index (in words): compared with phenytoin, phenobarbital and valproate
Description: Compounds were screened under the auspices of the National Institutes of Health for anticonvulsant activity in male albino Cartworth Farms No. 1 mice (ip route). Activity was established using the electrical (maximal electroshock or MES) test. In the MES test, a drop of electrolyte solution with anesthetic (0.5% butacaine hemisulfate in 0.9% sodium chloride) was used in the eyes of the animals prior to positioning the corneal electrodes and delivery of current. A 60 cycle alternating current was administered for 0.2 sec. at 50 mA. Protection endpoints were defined as the abolition of the hind limb tonic extensor component of the induced seizure. In mice, the effects of compounds on forced spontaneous motor activity were determined using the rotorod test. […] Normally under these conditions, a mouse can maintain its balance almost indefinitely. In the mouse identification screening study all compounds were given at three dose levels (30, 100, 300 mg/kg) and two time periods (0.5, 4h). Typically, in the MES seizures test one animal was used at 30 mg/kg and 300 mg/kg, and three animals at 100 mg/kg. In the rotorod toxicity test four animals were used at 30 mg/kg, and 300 mg/kg, and eight animals at 100 mg/kg.
The quantitative determination of the median effective (ED50) and toxic doses (TD50) were conducted at previously calculated times of peak effect. Groups of at least eight animals were tested using different doses of test compound until at least two points were determined between 100 and 0% protection and minimal motor impairment. The dose of candidate substance required to produce the defined endpoint in 50% of the animals in each test and the 95% confidence interval were calculated.

[4] = rotorod test, neurologic toxicity in mice; type: in vivo; details: mouse, ip, intraperitoneal, at time of peak effect, numbers in parentheses 95% confidence intervals, read-out: Tox TD50
Description: as §1

| SMILES | ED50 [1] | Tox TD50 [2] | anticonvulsant activity / efficacy (in words) ([1]; MES) | TD50 [4] | further results |
| --- | --- | --- | --- | --- | --- |
| CCC1(c2ccccc2)C(=O)NC(=O)NC1=O [phenobarbital] | 22 mg/kg | – | – | – | – |
| O=C1NC(=O)C(c2ccccc2)(c2ccccc2)N1 [phenytoin] | 6.5 mg/kg | 43 mg/kg | – | – | – |
| COCC(OC)C(=O)NCc1ccccc1 (stereo not shown) [R, S OCH3 CH2 OCH3, N-BENZYL 2,3-DIMETHOXY PROPIONAMIDE] | 30 mg/kg | – | much greater efficacy | 280 mg/kg | ED50, times more effective than that of the dihydroxy compound ([1]; MES, diether versus dihydroxy compound): greater than 3 times; protective index (in words) ([3]; listed as N-Benzyl 2,3-dimethyoxypropionamide): unexpectedly high protective index; protective index (in words) ([3]; listed as diether): significantly greater than the P.I. values of phenytoin, phenobarbital and valproate; P.I. (protective index, TD50/ED50) ([3]; intraperitoneal): 9.3; P.I., times more effective than that of the dihydroxy compound ([3]; intraperitoneal, diether versus dihydroxy compound): greater than 3 times |
| COC[C@@H](OC)C(=O)NCc1ccccc1 [R OCH3 CH2 OCH3, (R)-N-Benzyl-2,3-dimethoxypropionamide] | – | – | – | 300 mg/kg | – |
| CCCC(CCC)C(=O)O [valproate] | 290 mg/kg | 480 mg/kg | – | – | – |
| O=C(NCc1ccccc1)C(O)CO (racemic) [R, S OH CH2 OH, N-Benzyl 2,3-Dihydroxypropionamide] | – | – | very low anticonvulsant activity | > 300 mg/kg | – |
